# Values joined by “and” are separate entries in the source; they are usually repeats but may differ in a detail not shown here. Identical values can stand only once.
# What was measured:
# HCC827 = assay: Cell proliferation assay (CellTiter-Glo), dose matrix combination, HCC827 parental; format: cell-based, human; conditions: HCC827 parental line, 72 hours
# Protocol: HCC827 was obtained from ATCC. HCC827 GR5 (resistant to Gefitinib) was obtained from Jeff Engleman lab at Massachusetts General Hospital. Both cells were cultured in RPMI-1640 (ATCC, #30-2001) with 10% FBS (Thermo scientific, #SH30071.03) and maintained in a 37° C., 5% CO2 incubator. Cells were passaged twice a week using TrypLE™ Express (Invitrogen, #12604-013), an animal origin-free recombinant enzyme used for dissociating adherent mammalian cells compare to the regular trypsin.
# Cell viability was determined by measuring cellular ATP content using the CellTiter-Glo® (CTG) luminescent cell viability assay (Promega #G7573) according to the manufacturer's protocol. […] At the end of the drug treatment, 100 ul CTG reagent was added to each well to lyse the cells, and luminescence signals were recorded in the Envision plate reader (Perkin Elmer).
# To evaluate the combination effect in a non-bias way and to identify synergistic effect at all possible concentrations, the combination studies were conducted with a “dose matrix”, where a combination is tested in all possible permutations of serially-diluted compounds. […] The synergistic interaction was analyzed using Chalice software (CombinatoRx, Cambridge Mass.). Synergy was calculated by comparing a combination's response to those of its single agents, against the drug-with-itself dose-additive reference model. […]
# [1] = Tolerability (body weight) in Compound A resistant HCC827 mouse xenograft model; conditions: for Final BW (g) mean ± SD: day 14; for BW (%) mean, percent body weight change: day 14 versus day of treatment initiation
# Protocol: INC280-AA-3 was formulated in 0.25% MC (methylcellulose) 0.05% Tween 80 in water, solution. […] Animals were weighed on dosing days and doses were body weight adjusted. Tumor volumes were measured by digital caliper 3 times a week and body weights of all animals were recorded throughout the study.
# Body weight was monitored daily and the % change in body weight was calculated as (BWcurrent−BWinitial)/(BWinitial)×100. Data is presented as percent body weight change from the day of treatment initiation.
# [2] = tested on: EGFR and cMET phosphorylation; assay: Acute PD western blot of pEGFR and pMET in resistant NCI-HCC827 tumors; format: in vivo, SCID beige mice; conditions: single dose; Compound A 30 mg/kg, INC280 10 mg/kg; tumors taken 6 hours post dose
# Text: SCID beige mice bearing the Erlotinib resistant tumors (Animals 2-5), n=1 per group, a total of 4 groups and randomized 50 days post tumor fragment implantation with an average tumor volume of 1236.18 mm^3 and SD of 316.57 mm^3. Compound A resistant HCC827 tumors ([…]) were randomized into 4 groups (n=3 mice per group) 24 days post tumor fragment implantation with an average tumor volume of 963.24 mm^3 with SD 179.56 mm^3. Animals in each group received once daily oral administration of Compound A at 30 mg/kg or twice daily INC280-AA-3 at 10 mg/kg alone or in combination.
# Evaluation of target inhibition of pEGFR and pMET were done by western blot analysis. 40 […] of tumor lysate proteins were electrophoresed per sample using Criterion 4-12% Bis-Tris gels (Bio-Rad, Cat #345-0124). Upon completion of protein transfer, membranes were incubated with 5% BSA (Sigma) in TBST (25 mM Tris, 150 mM NaCl, 0.1% Tween-20) for 1 h at room temperature to block non-specific binding. […]
# [3] = tested on: Compound A resistant NSCLC HCC827 tumor; assay: Efficacy study in Compound A resistant HCC827 mouse xenograft model (GNF-11-308-138); format: in vivo, SCID beige mice; conditions: for Individual tumor volume: single animals; for Tumor volume, group Mean: n=6; for Mean initial Tumor Volume (mm^3 ± SE): initial day of dosing
# [4] = Compound A 30 mg/kg QD, INC280 10 mg/kg BID
# [5] = day 0 post dosing (day 22 post implant)
# [6] = day 2 post dosing (day 24 post implant)
# [7] = day 5 post dosing (day 27 post implant)
# [8] = day 7 post dosing (day 29 post implant)
# [9] = day 9 post dosing (day 31 post implant)
# [10] = day 12 post dosing (day 34 post implant)
# [11] = day 14, Compound A 30 mg/kg QD, INC280 10 mg/kg BID, oral
# [12] = day 14 post dosing (day 36 post implant)
# [13] = Compound A 30 mg/kg QD, INC280 10 mg/kg BID, oral
SMILES,"Final BW (g) mean ± SD [1, 4]","BW (%) mean, percent body weight change [1]","Initial BW (g) mean ± SD [1, 4]",inhibition of EGFR and cMET phosphorylation in tumor lysates (western) [2],"Individual tumor volume [3, 5]","Tumor volume, group Mean ([3]; day 0 post dosing)","Individual tumor volume [3, 6]","Tumor volume, group Mean ([3]; day 2 post dosing)","Individual tumor volume [3, 7]","Tumor volume, group Mean ([3]; day 5 post dosing)","Individual tumor volume [3, 8]","Tumor volume, group Mean ([3]; day 7 post dosing)","Individual tumor volume [3, 9]","Tumor volume, group Mean ([3]; day 9 post dosing)","Individual tumor volume [3, 10]","Tumor volume, group Mean ([3]; day 12 post dosing)","Mean final Tumor Volume (mm^3 ± SE) [3, 11]","Individual tumor volume [3, 12]","Tumor volume, group Mean ([3]; day 14 post dosing)","Mean initial Tumor Volume (mm^3 ± SE) [3, 13]",also measured
"Cc1cc(C(=O)Nc2nc3cccc(Cl)c3n2[C@@H]2CCCCN(C(=O)/C=C/CN(C)C)C2)ccn1 [Compound A, (R,E)-N-(7-chloro-1-(1-(4-(dimethylamino)but-2-enoyl)azepan-3-yl)-1H-benzo[d]imidazol-2-yl)-2-methylisonicotinamide]",22.58 ± 1.00 g,5.39%,21.43 ± 0.77 g,selective depletion of pEGFR and pMET expression,470.34 mm^3 and 502.24 mm^3 and 547.37 mm^3 and 597.98 mm^3 and 657.77 mm^3 and 694.21 mm^3,578.32 mm^3,425.76 mm^3 and 474.70 mm^3 and 500.47 mm^3 and 718.94 mm^3 and 679.81 mm^3 and 723.63 mm^3,587.22 mm^3,447.17 mm^3 and 509.01 mm^3 and 478.72 mm^3 and 709.28 mm^3 and 723.82 mm^3 and 730.32 mm^3,599.72 mm^3,641.63 mm^3 and 591.63 mm^3 and 523.15 mm^3 and 792.15 mm^3 and 837.06 mm^3 and 800.58 mm^3,697.70 mm^3,595.65 mm^3 and 822.67 mm^3 and 611.23 mm^3 and 877.37 mm^3 and 891.82 mm^3 and 940.84 mm^3,789.93 mm^3,932.76 mm^3 and 885.77 mm^3 and 742.37 mm^3 and 1125.55 mm^3 and 1019.63 mm^3 and 1028.22 mm^3,955.72 mm^3,1063.26 ± 93.45 mm^3,882.62 mm^3 and 1115.99 mm^3 and 727.98 mm^3 and 1076.46 mm^3 and 1368.14 mm^3 and 1208.36 mm^3,1063.26 mm^3,578.32 ± 35.84 mm^3,"single agent response, cell viability (HCC827): only respond to Compound A; anti-tumor activity in words ([3]; 14 days, Compound A 30 mg/kg QD, INC280 10 mg/kg BID, oral, versus vehicle): not significantly different from vehicle"
"CNC(=O)c1ccc(-c2cnc3ncc(Cc4ccc5ncccc5c4)n3n2)cc1F [INC280, 2-fluoro-N-methyl-4-[(7-quinolin-6-yl-methyl)-imidazo[1,2-b]triazin-2-yl]benzamide]",19.95 ± 1.58 g,−3.83%,20.74 ± 0.79 g,selective depletion of pEGFR and pMET expression,456.20 mm^3 and 520.06 mm^3 and 543.63 mm^3 and 640.13 mm^3 and 655.67 mm^3 and 713.33 mm^3,588.17 mm^3,531.11 mm^3 and 641.24 mm^3 and 502.64 mm^3 and 784.24 mm^3 and 667.19 mm^3 and 674.14 mm^3,633.43 mm^3,869.50 mm^3 and 753.37 mm^3 and 556.93 mm^3 and 822.50 mm^3 and 628.26 mm^3 and 834.83 mm^3,744.23 mm^3,690.94 mm^3 and 653.24 mm^3 and 589.97 mm^3 and 675.03 mm^3 and 699.40 mm^3 and 627.01 mm^3,655.93 mm^3,646.47 mm^3 and 649.16 mm^3 and 572.94 mm^3 and 510.69 mm^3 and 613.71 mm^3 and 594.99 mm^3,597.99 mm^3,688.69 mm^3 and 617.11 mm^3 and 487.07 mm^3 and 531.80 mm^3 and 432.97 mm^3 and 585.67 mm^3,557.22 mm^3,760.84 ± 81.62 mm^3,1030.71 mm^3 and 948.57 mm^3 and 521.81 mm^3 and 674.65 mm^3 and 598.62 mm^3 and 790.69 mm^3,760.84 mm^3,588.17 ± 39.56 mm^3,"tolerability in words ([1]; 14 day treatment, Compound A 30 mg/kg QD, INC280 10 mg/kg BID): well tolerated for rest of the study; group body weight change ([1]; day 7): −8.5%; group body weight change ([1]; day 8): −5.66%; Mean T/C (percent treated versus control; negative = regression) [3, 11]: 23%"

# Source: patent publication US10195208B2, “Combination therapy” (Novartis AG, priority 2014, dated 2019)
